In data set [1] the target is T1, recombinant human Meningioma Expressed Antigen 5 (MGEA5), also referred to as O-GlcNAcase (OGA) (Homo sapiens, UniProt O60502).
T1 construct: Full length OGA enzyme was purchased at OriGene (cat #TP322411); purchased OriGene TP322411
T1 sequence (O60502 1-916): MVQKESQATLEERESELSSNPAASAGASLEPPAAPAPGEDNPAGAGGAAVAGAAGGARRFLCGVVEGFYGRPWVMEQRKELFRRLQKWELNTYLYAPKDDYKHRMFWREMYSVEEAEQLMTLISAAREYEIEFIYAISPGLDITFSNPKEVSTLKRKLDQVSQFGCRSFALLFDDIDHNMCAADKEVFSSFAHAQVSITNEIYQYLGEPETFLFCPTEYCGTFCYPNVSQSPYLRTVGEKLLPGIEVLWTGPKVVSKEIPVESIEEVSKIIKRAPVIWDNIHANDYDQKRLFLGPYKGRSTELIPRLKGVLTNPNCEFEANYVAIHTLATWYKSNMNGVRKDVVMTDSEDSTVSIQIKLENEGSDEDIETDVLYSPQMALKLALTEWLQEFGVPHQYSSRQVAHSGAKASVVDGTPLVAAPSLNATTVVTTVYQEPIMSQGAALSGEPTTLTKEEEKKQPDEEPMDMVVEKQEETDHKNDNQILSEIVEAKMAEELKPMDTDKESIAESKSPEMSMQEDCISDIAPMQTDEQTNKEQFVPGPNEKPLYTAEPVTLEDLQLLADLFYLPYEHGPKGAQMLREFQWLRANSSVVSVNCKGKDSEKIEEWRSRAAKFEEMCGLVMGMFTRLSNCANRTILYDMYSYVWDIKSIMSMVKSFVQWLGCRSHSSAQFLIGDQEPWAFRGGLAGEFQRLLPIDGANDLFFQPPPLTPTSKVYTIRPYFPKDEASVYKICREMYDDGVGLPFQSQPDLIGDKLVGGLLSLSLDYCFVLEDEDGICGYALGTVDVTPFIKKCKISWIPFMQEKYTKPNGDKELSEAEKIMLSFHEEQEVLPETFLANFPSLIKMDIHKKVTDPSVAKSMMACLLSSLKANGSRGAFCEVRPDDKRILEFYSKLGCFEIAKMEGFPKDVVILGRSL
Description: OGA biochemical assay (inhibition of FM-GlcNAc hydrolysis, fluorescence). As to conditions: for IC50: Enzymatic hOGA, pIC50, Table 5; for IC50 / Enzymatic hOGA; pIC50: full length OGA 2 nM, FM-GlcNAc 100 uM, 6 h at room temperature; for Emax: read-out: Enzymatic Emax (%); for Enzymatic hOGA; pIC50: Table 5. How it is done: The hydrolysis FM-GlcNAc (Marker Gene technologies, cat #M1485) results in the formation of β-D-N-glucosamineacetate and fluorescein. The fluorescence of the latter can be measured at excitation wavelength 485 nm and emission wavelength 538 nm. An increase in enzyme activity results in an increase in fluorescence signal. Full length OGA enzyme was purchased at OriGene (cat #TP322411). The enzyme was stored in 25 mM Tris.HCl, pH 7.3, 100 mM glycine, 10% glycerol at −20° C. […] The assay was performed in 200 mM Citrate/phosphate buffer supplemented with 0.005% Tween-20. 35.6 g Na2HIPO42H2O (Sigma, #C0759) were dissolved in 1 L water to obtain a 200 mM solution. […] The buffer to stop the reaction consists of a 500 mM Carbonate buffer, pH 11.0. […] OGA was used at a 2 nM concentration and FM-GlcNAc at a 100 uM final concentration. Dilutions were prepared in assay buffer.
Plates were pre-incubated for 60 min at room temperature and then 2 μl FM-GlcNAc substrate mix added. […] Plates were briefly centrifuged for 1 min at 1000 rpm and incubate at room temperature for 6 h. To stop the reaction 5 μl STOP buffer were added and plates centrifuge again 1 min at 1000 rpm. Fluorescence was quantified in the Thermo Scientific Fluoroskan Ascent or the PerkinElmer EnVision with excitation wavelength 485 nm and emission wavelength 538 nm.
For analysis a best-fit curve is fitted by a minimum sum of squares method. From this an IC50 value and Hill coefficient was obtained. High control (no inhibitor) and low control (saturating concentrations of standard inhibitor) were used to define the minimum and maximum values.

Data set [2] deals with T2, hOGA (Homo sapiens, UniProt O60502).
T2 construct: endogenous in cells; host or cells: HEK293 cells inducible for P301L mutant human Tau (isoform 2N4R)
T2 sequence (O60502 1-916): T1 sequence (O60502 1-916)
The data set can be described thus: OGA cellular assay (ICC detection of O-GlcNAcylated proteins in HEK293 cells inducible for P301L mutant human Tau). In kind it is cell-based. More on the design: Emax: dose or concentration left out as unconfirmed. As to conditions: for EC50: Cellular hOGA, pEC50, Table 5; for Emax: HEK293, read-out: Cellular Emax (%). How it is done: HEK293 cells inducible for P301L mutant human Tau (isoform 2N4R) were established at Janssen. Thiamet-G was used for both plate validation (high control) and as reference compound (reference EC50 assay validation). OGA inhibition is evaluated through the immunocytochemical (ICC) detection of O-GlcNAcylated proteins by the use of a monoclonal antibody (CTD110.6; Cell Signaling, #9875) detecting O-GlcNAcylated residues as previously described (Dorfmueller et al. 2010 Chemistry & biology, 17:1250). Inhibition of OGA will result in an increase of O-GlcNAcylated protein levels resulting in an increased signal in the experiment. Cell nuclei are stained with Hoechst to give a cell culture quality control and a rough estimate of immediate compounds toxicity, if any. ICC pictures are imaged with a Perkin Elmer Opera Phenix plate microscope and quantified with the provided software Perkin Elmer Harmony 4.1.
Cells were propagated in DMEM high Glucose (Sigma, #D5796) following standard procedures. 2 days before the cell assay cells are split, counted and seeded in Poly-D-Lysine (PDL) coated 96-wells (Greiner, #655946) plate at a cell density of 12,000 cells per cm^2 (4,000 cells per well) in 100 μl of Assay Medium (Low Glucose medium is used to reduce basal levels of GlcNAcylation) (Park et al. 2014 The Journal of biological chemistry 289:13519). At the day of compound test medium from assay plates was removed and replenished with 90 μl of fresh Assay Medium. 10 μl of compounds at a 10 fold final concentration were added to the wells. Plates were centrifuged shortly before incubation in the cell incubator for 6 hours. DMSO concentration was set to 0.2%. Medium is discarded by applying vacuum. For staining of cells medium was removed and cells washed once with 100 μl D-PBS (Sigma, #D8537). From next step onwards unless other stated assay volume was always 50 μl and incubation was performed without agitation and at room temperature. Cells were fixed in 50 μl of a 4% paraformaldehyde (PFA, Alpha aesar, #043368) PBS solution for 15 minutes at room temperature. […] Before analysis samples were washed 2 times manually for 5 minutes in ICC base buffer.
Imaging is performed using Perkin Elmer Phenix Opera using a water 20× objective and recording 9 fields per well. Intensity readout at 488 nm is used as a measure of O-GlcNAcylation level of total proteins in wells. To assess potential toxicity of compounds nuclei were counted using the Hoechst staining. IC50-values are calculated using parametric non-linear regression model fitting. As a maximum inhibition Thiamet Gat a 200 uM concentration is present on each plate. In addition, a concentration response of Thiamet G is calculated on each plate.

Setting [3] is: HEK293 P301L Tau cells, 6 hours incubation, O-GlcNAcylation readout.
Where [4] appears, read: Table 5, HEK293 P301L Tau cells, 6 hours incubation, O-GlcNAcylation readout.

A value given as a limit tells only on which side of the number the result lay.

These results are taken from US20230099293A1, “OGA INHIBITOR COMPOUNDS” (priority 2019, published 2023).

Molecule `Cc1cc(C(F)(F)F)cc(C)c1Nc1nccc2c1ncn2CC(=O)N1CCCC1` [Compound 49] showed a melting point of 196.6 °C. In data set [1], the half-inhibitory concentration (IC50) was 93.3 nM and the maximum response (Emax) was determined as 95%. The molecule further showed an EC50 in data set [2] (setting [3]) of 646 nM. Also, the Emax in data set [2] turned out to be 57%.
In the same order, the values of `Cc1cc(C(F)(F)F)cc(C)c1Nc1nccc2c1ncn2-c1ccc(F)cn1` [Compound 60, N-(2,6-Dimethyl-4-(trifluoromethyl)phenyl)-1-(5-fluoropyridin-2-yl)-1H-imidazo[4,5-c]pyridin-4-amine] are 186.5 °C, 117 nM, 100%, 933 nM and 44%.
The molecule `Cc1cc(C(F)(F)F)cc(C)c1Nc1nccc2c1ncn2CCC(=O)N(C)C` [Compound 70] registered a melting point of 194.9 °C. In data set [1], the “Enzymatic hOGA; pIC50” value was less than 5 and the Emax was determined as 7%. Moreover, the Emax in data set [2] is 7%. Moreover, in data set [2] (setting [4]), the “Cellular hOGA; pEC50” value is less than 6. For the same molecule, the “Cellular hOGA; pEC50” value in data set [2] (second table, averaged values over several runs, obtained after recalibration of the equipment) was less than 6.
With `Cc1cc2c(ncn2CC(=O)N(C)C)c(Nc2c(C)cc(C(F)(F)F)cc2C)n1` [Compound 30], the melting point worked out at 188.2 °C. Moreover, in data set [1], the IC50 was 5890 nM and the Emax came to 55%. The concentration giving a half-maximal response (EC50) in data set [2] (setting [3]) is more than 1000 nM. Also, the Emax in data set [2] is 12%.
In the same order, the values of `[2H]C([2H])([2H])N(C(=O)Cn1cnc2c(Nc3c(C)cc(C(F)(F)F)cc3C)nccc21)C([2H])([2H])[2H]` [Compound 53] are 208.2 °C, 7.24 nM, 103%, 135 nM and 87%.
In the same order, the values of `Cc1cc(C(F)(F)F)cc(C)c1Nc1nccc2c1ncn2CC(=O)N1CCC1` [Compound 50] are 176.4 °C, 126 nM, 94%, 933 nM and 48%.
For the molecule `Cc1cc(F)cc(F)c1Nc1nccc2c1ncn2CC(C)(F)F` [Compound 3], the melting point was 174.99 °C. Also, in data set [1], the IC50 is 25.7 nM and the maximal effect (Emax) turned out to be 101%. Moreover, the EC50 in data set [2] (setting [3]) is 741 nM. Further, the Emax in data set [2] stood at 57%.
The corresponding values for `CCc1cc(C(F)(F)F)cc(C)c1Nc1nccc2c1ncn2CC(=O)N(C)C` [Compound 10] are 211.6 °C, 9.33 nM, 100%, 100 nM and 100%.
Take `CN(C)C(=O)Cn1cnc2c(Nc3ccc(F)cc3C(F)(F)F)nccc21` [Compound 29]: the melting point stood at 246.7 °C. Besides, in data set [1], the 50% inhibitory concentration (IC50) is 1000 nM and the Emax came to 100%. The molecule further displayed an EC50 in data set [2] (setting [3]) of more than 200 nM. Further, the maximal effect (Emax) in data set [2] is 2%.
The corresponding values for `Cc1ccc(-n2nc(C)c(Nc3nccc4c3ncn4CC(=O)N(C)C)c2C)cc1` [Compound 45] are 214.9 °C, 23.4 nM, 94%, 550 nM and 94%.
`Cc1cc(F)cc(C)c1Nc1nccc2c1ncn2CC(=O)N(C)C` [Compound 20] registered a melting point of 216.7 °C. Also, in data set [1], the 50% inhibitory concentration (IC50) is 18.6 nM and the Emax turned out to be 98%. Also, the EC50 in data set [2] (setting [3]) is 170 nM. Besides, the Emax in data set [2] is 83%.
In the same order, the values of `Cc1cc(C)cc(-n2nc(C)c(Nc3nccc4c3ncn4CC(=O)N(C)C)c2C)c1` [Compound 43] are 154.7 °C, 14.8 nM, 99%, 437 nM and 65%.
In the same order, the values of `CC(C)c1cc(F)cc(Cl)c1Nc1nccc2c1ncn2CC(=O)N(C)C` [Compound 47] are 251.8 °C, 13.5 nM, 97%, 67.6 nM and 110%.
In the same order, the values of `Cc1cc(C)c(Nc2nccc3c2ncn3CC(=O)N(C)C)c(C)c1` [Compound 19] are 270.2 °C, 20 nM, 98%, 537 nM and 62%.
For `Cc1ccc(-n2nc(C)c(Nc3nccc4c3ncn4CC(=O)N(C)C)c2C)cc1C` [Compound 42], the melting point amounted to 144.7 °C. In addition, in data set [1], the IC50 is 21.9 nM and the maximum response (Emax) turned out to be 93%. In addition, the concentration giving a half-maximal response (EC50) in data set [2] (setting [3]) is 295 nM. Further, the Emax in data set [2] is 70%.
The corresponding values for `Cc1nn(-c2ccccc2)c(C)c1Nc1nccc2c1ncn2CC(=O)N(C)C` [Compound 41] are 126.3 °C, 28.2 nM, 95%, more than 1000 nM and 44%.
In turn, `Cc1cc(C(F)(F)F)cc(C)c1Nc1ncc(C2CC2)c2c1ncn2CC(=O)N(C)C` [Compound 75] gave a melting point of 246.7 °C. In addition, in data set [1], the “Enzymatic hOGA; pIC50” value turned out to be 6.28 and the Emax is 97%. In addition, the maximum response (Emax) in data set [2] turned out to be 22%. Further, the “Cellular hOGA; pEC50” value in data set [2] (setting [4]) was less than 6.

As usually defined, the IC50 is the midpoint of a concentration-inhibition curve. The Emax is the size of the effect at its maximum, as opposed to the concentration needed. The term melting point denotes the temperature of the solid-liquid transition. One may read the EC50 as the concentration that produces a half-maximal response.
